In patent US7335501B1, “Phytases and methods for producing these phytases” (Adisseo France S.A.S., priority 2001, dated 2008):

Tested on: Penicillium sp. CBS 109899 phytase (wild type, SEQ ID NO: 3), in crude fungal extract
Test: Michaelis-Menten constants of the phytase contained in the crude fungal extract (phosphate release from sodium phytate, method of Shimizu)
Assay type: biochemical
Conditions: substrate sodium phytate, 250 mM acetate buffer with 1 mM CaCl2, pH 5.5, 37° C.
Experimental: The measurement of phytase activity is based on the method of Shimizu (1992, Biosci. Biotech. Biochem. 56(8), 1266-1269). The principle of this method consists in measuring the amount of inorganic phosphate released during the enzymatic reaction of the phytase with its substrate (solution of sodium phytate prepared at 10 g/l in a 250 mM acetate buffer containing 1 mM CaCl2, pH 5.5). The amount of inorganic phosphate released is measured by reaction of this phosphate with a chromogenic reagent (1 volume of iron sulfate at 10.8% mixed extemporaneously with 4 volumes of ammonium molybdate at 0.012M H2SO4). This reaction leads, in highly acidic medium, to the formation of a colored phosphomolybdate complex (in the presence of Fe^2+), and the amount of complex formed is quantified by measuring the absorbance at 700 nm of the colored solution generated, on a spectrophotometer.
Three reactions are carried out in parallel in order to produce enzymatic kinetics at 10, 20 and 30 minutes at 37° C. […] The sample interference is determined by adding the 20% trichloroacetic acid and then the phytic acid to the crude extract, which may or may not be diluted. […] The intensity of the blue coloration is measured by spectrophotometry at 700 nm. […] The enzymatic activity is determined using the rate of appearance of the phosphate in the course of the enzymatic kinetics. […]

Question: For `O=P(O)(O)O[C@H]1[C@H](OP(=O)(O)O)[C@@H](OP(=O)(O)O)[C@H](OP(=O)(O)O)[C@@H](OP(=O)(O)O)[C@H]1OP(=O)(O)O` [sodium phytate], which “Vmapp (maximum reaction rate)” value is on record?
Answer: 1.425 μmol of phosphate released per minute and per mg of sample

Question: What about the Km (substrate concentrations and incubation times modified, read-out: Kmapp) of the same compound?
Answer: 550 µM
